Series [1] has as its system Human Breast Adenocarcinoma Cell Line MDA-MB-231. In words: Drug cytotoxicity testing (viable cell count, trypan blue exclusion, cell growth inhibition). The class given is cell-based. The method, then: (§1) MDA-MB-231 cells were propagated in MEM culture medium with 2 mM L-glutamine, 10% heat-inactivated fetal bovine serum (FBS) and antibiotics. DU 145 cells were cultured in MEM culture medium containing 2 mM L-glutamine, 1 mM sodium pyruvate, 10% FBS and antibiotics. SKOV-3 cells were cultured in McCoy's 5A culture medium, supplemented with 1,5 mM L-glutamine, 10% FBS and antibiotics. A549 cells were cultured in Ham's F-12 culture medium with 1 mM L-glutamine, 10% FBS and antibiotics. All media and supplements were purchased from Sigma-Aldrich (St.Louis, MO, USA). Cell propagation of all lines was carried out in Falcon™ 25 cm^2 cultivation flasks (Becton Dickinson Labware).
(§2) Drug cytotoxicity testing was carried out with using Falcon™ 96-well cultivation plates for adherent cells (Becton Dickinson Labware). These plates were seeded by cells either at 12 × 10^3 MDA-MB-231 cells/well, or at 12 × 10^3 DU 145 cells/well, or at 14 × 10^3 SKOV-3 cells/well, or at 10 × 10^3 A549 cells/well in a volume of 200 µL/well.
(§3) The cell cultures in cultivation plates were allowed to adhere for 24 hour of incubation. On day 1 after cell seeding, 2 µL solutions of the drugs to be tested in medium with 5% FBS was added to the cultures. In the control cultures, 2 µL of medium with 5% FBS was added as solvent control. The cells were incubated for 2 consecutive days. At the end of the incubation period adherent cells were detached by trypsinization and the number of viable cells was counted using trypan blue exclusion test and a hemocytometer. All data were derived from an average of three determinations each in six replicates. The results were expressed as mean cell number ± SE and the differences between control and test series evaluated by means of Student's t-test. The drug cytotoxicity was evaluated based on the extent of cell growth inhibition. The cell growth inhibition of the tested drugs was calculated as follows: Cell growth inhibition,% = (Control-TestSeries)/(Control) × 100 [formula]
In the case of comparative evaluation of cytotoxicity of the inventive compounds themselves and the formulation related to consecutive dilutions of their initial solutions before adding to the cultures, 2 µL solutions of the drugs to be tested in medium with 5% FBS, in normal saline and in saline with 2,3 mM CaCl2 were added to the cultures. In control cultures, 2 µL of medium with 5% FBS, normal saline and saline with 2,3 mM CaCl2 were added as solvent controls (negative controls). […] Therefore an average of negative controls was calculated. […] Therefore an average of positive controls was calculated (for each antibiotic).

For series [2] the following is noted: rat, in vivo, ip.
Method: A single dose i.p. toxicity study in rats was carried out. […] The minimal lethal dose is thus above 100 mg/kg body weight for these compounds.
Series [3] relates to Human Prostate Carcinoma Cell Line DU 145. In words: Drug cytotoxicity testing (viable cell count, trypan blue exclusion, cell growth inhibition). Format: cell-based. Conditions: alone or in formulation at molar ratio 1:6. On the procedure: as §1, §2, §3
[4] abbreviates: Homo sapiens, MDA-MB-231, 48 h, compound alone, final concentration 10^-7 mol/L, working solutions in MEM with 5% FBS, two days, read-out: cell growth inhibition.
Where [5] appears, read: Homo sapiens, MDA-MB-231, 48 h, compound alone, final concentration 10^-8 mol/L, working solutions in MEM with 5% FBS, two days, read-out: cell growth inhibition.
[6] abbreviates: Homo sapiens, MDA-MB-231, 48 h, compound alone, final concentration 10^-9 mol/L, working solutions in MEM with 5% FBS, two days, read-out: cell growth inhibition.
Setting [7] is: compound alone, final concentration 10^-7 mol/L, working solutions in MEM with 5% FBS, two days.
[8] abbreviates: compound alone, final concentration 10^-8 mol/L, working solutions in MEM with 5% FBS, two days.
Where [9] appears, read: cytotoxic drug 10^-8 mol/L, working solutions in medium with 5% FBS.
The mark [10] stands for this setting: compound alone, final concentration 10^-9 mol/L, working solutions in MEM with 5% FBS, two days.

For orientation: inhibition means the percentage by which the read-out fell short of the control.

Like-named read-outs stand apart in the source and are kept apart here. Marks after values point to notes of the source that are not given here.

As for `COC(=O)[C@H](CCS(=O)(=O)O)NC(=O)/C=C(C)/C=C/C=C(C)/C=C/C1=C(C)CCCC1(C)C` [compound I-3a, N-(all-trans-retinoyl)-L-homocysteic acid methyl ester], the inhibition at 0.1 µM in series [1] (setting [4]) stood at 49%. The inhibition at 0.01 µM in series [1] (setting [5]) was 38.2%. Also, the inhibition at 0.001 µM in series [1] (setting [6]) came to 29.2%. Also, the “number of viable cells” value in series [1] (setting [7]) was 28.8 ± 1.15 × 10^3; in series [1] (setting [8]), 34.9 ± 1.64 × 10^3. The minimal lethal dose entry in series [2] is “above 100 mg/kg body weight”. In addition, the mortality result in series [2] (100 mg/kg) is reported as “did not produce mortality”.
Consider `O=C1c2c(O)ccc(O)c2C(=O)c2c(NCCNCCO)ccc(NCCNCCO)c21` [Mitoxantrone, mitoxantrone], for which the IC50 in series [1] (Homo sapiens, MDA-MB-231, as concentration of cytotoxic drug, alone or in formulation at molar ratio 1:6, medium with 5% FBS, calculated from three concentrations, read-out: IC50 mol/L (a)) was 5 nM; in series [3] (Homo sapiens, DU-145, as concentration of cytotoxic drug, medium with 5% FBS, calculated from three concentrations, read-out: IC50 mol/L (a)), 32 nM. For the same molecule, the inhibition at 0.1 µM in series [1] (Homo sapiens, MDA-MB-231, cytotoxic drug 10^-7 mol/L (100 nM), alone or in formulation at molar ratio 1:6, working solutions in medium with 5% FBS, read-out: Cell Growth Inhibition, %) amounted to 58.8%; in series [3] (Homo sapiens, DU-145, cytotoxic drug 10^-7 mol/L (100 nM), working solutions in medium with 5% FBS), 60.2%. Moreover, the inhibition at 0.01 µM in series [1] (Homo sapiens, MDA-MB-231, cytotoxic drug 10^-8 mol/L, alone or in formulation at molar ratio 1:6, working solutions in medium with 5% FBS, read-out: Cell Growth Inhibition, %) was found to be 52.6%; in series [3] (Homo sapiens, DU-145, cytotoxic drug 10^-8 mol/L, working solutions in medium with 5% FBS), 39.1%. Besides, the inhibition at 0.001 µM in series [1] (Homo sapiens, MDA-MB-231, cytotoxic drug 10^-9 mol/L, alone or in formulation at molar ratio 1:6, working solutions in medium with 5% FBS, read-out: Cell Growth Inhibition, %) turned out to be 43.6%; in series [3] (Homo sapiens, DU-145, cytotoxic drug 10^-9 mol/L, working solutions in medium with 5% FBS) it was 19.1%. The “Tumor Cell Number, × 10^3” value in series [1] (cytotoxic drug 10^-7 mol/L (100 nM), alone or in formulation at molar ratio 1:6, working solutions in medium with 5% FBS) is 22.5 ± 1.63 × 10^3; in series [1] (cytotoxic drug 10^-7 mol/L (100 nM), alone or in formulation at molar ratio 1:6, working solutions in medium with 5% FBS, listed as mitoxantrone), 22.9 ± 1.49 × 10^3; in series [1] (cytotoxic drug 10^-8 mol/L, alone or in formulation at molar ratio 1:6, working solutions in medium with 5% FBS), 27.4 ± 1.90 × 10^3; in series [1] (cytotoxic drug 10^-9 mol/L, alone or in formulation at molar ratio 1:6, working solutions in medium with 5% FBS), 32.6 ± 1.99 × 10^3; in series [3] (cytotoxic drug 10^-7 mol/L (100 nM), working solutions in medium with 5% FBS) it was 23.1 ± 1.34 × 10^3; in series [3] (cytotoxic drug 10^-7 mol/L (100 nM), working solutions in medium with 5% FBS, listed as mitoxantrone), 19.2 ± 1.16 × 10^3. Further, the “Tumor Cell Number, × 10^3” value in series [3] (setting [9]) is given as 35.0 ± 1.70 × 10^3; in series [3] (cytotoxic drug 10^-9 mol/L, working solutions in medium with 5% FBS), 46.5 ± 2.32 × 10^3. Moreover, the “Cell Growth Inhibition, %” value in series [1] (cytotoxic drug 10^-7 mol/L (100 nM), alone or in formulation at molar ratio 1:6, working solutions in medium with 5% FBS, 0.1 µM) is reported as 61.1* %; in series [3] (cytotoxic drug 10^-7 mol/L (100 nM), working solutions in medium with 5% FBS, 0.1 µM), 59.8* %; in series [3] (setting [9]), 39.1 * %.
Regarding `CCCCOC(=O)[C@H](CS(=O)(=O)O)NC(=O)/C=C(C)/C=C/C=C(C)/C=C/C1=C(C)CCCC1(C)C` [compound I-1e, N-(all-trans-retinoyl)-L-cysteic acid butyl ester], the inhibition at 0.1 µM in series [1] (setting [4]) is 53.5%. Moreover, the inhibition at 0.01 µM in series [1] (setting [5]) was found to be 49.2%. In series [1] (setting [6]), the inhibition at 0.001 µM amounted to 44.7%. Moreover, the results for the “number of viable cells” value in series [1] (setting [7]), in series [1] (setting [8]) and in series [1] (setting [10]) were 24.8 ± 1.34 × 10^3, 27.1 ± 1.75 × 10^3 and 29.5 ± 2.18 × 10^3, respectively.
As to `CNC(=O)[C@H](CS(=O)(=O)O)NC(=O)/C=C(C)/C=C/C=C(C)/C=C/C1=C(C)CCCC1(C)C` [compound I-1g, N-(all-trans-retinoyl)-L-cysteic acid methylamide], the inhibition at 0.01 µM in series [1] (setting [5]) is 35.9%; in series [1] (Homo sapiens, MDA-MB-231, compound alone 10^-8 mol/L, in A (saline with […] CaCl2), read-out: cell growth inhibition), 36.7%; in series [1] (Homo sapiens, MDA-MB-231, compound alone 10^-8 mol/L, in B (normal saline), read-out: cell growth inhibition), 14.2%; in series [1] (Homo sapiens, MDA-MB-231, compound alone 10^-8 mol/L, read-out: Cell growth inhibition in A compared to that in B was increased by), 26.3%. Moreover, the inhibition at 0.001 µM turned out to be 27.8% in series [1] (setting [6]); 28.5% in series [1] (Homo sapiens, MDA-MB-231, compound alone 10^-9 mol/L, in A (saline with […] CaCl2), read-out: cell growth inhibition); 4.2% in series [1] (Homo sapiens, MDA-MB-231, compound alone 10^-9 mol/L, in B (normal saline), read-out: cell growth inhibition); 25.4% in series [1] (Homo sapiens, MDA-MB-231, compound alone 10^-9 mol/L, read-out: Cell growth inhibition in A compared to that in B was increased by). Also, the inhibition at 0.1 µM in series [1] (Homo sapiens, MDA-MB-231, compound alone 10^-7 mol/L, in B (normal saline), read-out: cell growth inhibition) came out at 22.8%; in series [1] (Homo sapiens, MDA-MB-231, compound alone 10^-7 mol/L, read-out: Cell growth inhibition in A compared to that in B was increased by) it was 26.5%. The “number of viable cells” value in series [1] (compound alone 10^-7 mol/L, in B (normal saline)) was 43.1 ± 2.03 × 10^3; in series [1] (compound alone 10^-8 mol/L, in B (normal saline)) it was 47.9 ± 2.86 × 10^3; in series [1] (compound alone 10^-9 mol/L, in B (normal saline)), 53.5 ± 3.21 × 10^3; in series [1] (setting [7]) it was 32.1 ± 1.72 × 10^3; in series [1] (setting [8]), 36.2 ± 1.95 × 10^3; in series [1] (setting [10]), 40.8 ± 2.14 × 10^3. Further, in series [1] (compound alone (sodium salt), concentration range 10^-9 to 10^-7 M), the “cell growth inhibition reached when increasing the concentration” value is recorded as around 43%. For the same molecule, the “cell growth inhibition reached on increase of the concentration, in (B)” value in series [1] (sodium salt, range 10^-9 to 10^-7 M, dilution in normal saline (B)) is reported as around 23%.
Turning to `CCCCOC(=O)[C@H](CS(=O)(=O)O)NC(=O)\C=C(C)/C=C/C=C(C)/C=C/C1=C(C)CCCC1(C)C` [compound II-1e, N-(13-cis-retinoyl)-L-cysteic acid butyl ester], the inhibition at 0.01 µM in series [1] (setting [5]) amounted to 50.7%. Moreover, the inhibition at 0.001 µM in series [1] (setting [6]) was 45.6%. For the same molecule, in series [1] (setting [10]), the “number of viable cells” value is recorded as 30.9 ± 1.82 × 10^3.
Take `CC1=C(/C=C/C(C)=C/C=C/C(C)=C\C(=O)N[C@@H](CS(=O)(=O)O)C(=O)OC(C)C)C(C)(C)CCC1` [compound II-1c, N-(13-cis-retinoyl)-L-cysteic acid isopropyl ester]: in series [1] (setting [4]), the inhibition at 0.1 µM came out at 50.4%. Moreover, the inhibition at 0.01 µM in series [1] (setting [5]) worked out at 47%. Besides, the inhibition at 0.001 µM in series [1] (setting [6]) was 42.6%. Also, the “number of viable cells” value in series [1] (setting [10]) is 33.6 ± 2.75 × 10^3.
As for `CC1=C(/C=C/C(C)=C/C=C/C(C)=C\C(=O)N[C@@H](CCS(=O)(=O)O)C(=O)O)C(C)(C)CCC1` [compound II-3, N-(13-cis-Retinoyl)-L-homocysteic acid], the minimal lethal dose result in series [2] was “above 100 mg/kg body weight”.
